Test results published in patent US9920058B2, “Molecules with potent DHFR binding affinity and antibacterial activity” (Georgia Tech Research Corporation, priority 2013, dated 2018).
≈ marks a conversion by molar mass, not a printed value. Read-outs that look alike come from different tables or passages of the source. Values belong to the molecule of their own block, whether it stands above or below them.

What was measured:
[1] = target: dihydrofolate reductase (DHFR) from Escherichia coli (Escherichia coli, UniProt P0ABQ4); assay: biochemical; assay type: binding; settings: for ΔTm: unit given in Table 4
Protocol: The thermal shift assay was performed in a control reaction mix containing 100 mM HEPES pH 7.3, 150 mM NaCl, 5× Sypro-orange (an extrinsic fluorophore reporter from Invitrogen), 10 micromolar of the protein dihydrofolate reductase in 20 μl reaction mix. The test reaction contained 1 mM of the said compound apart from all the other constituents as mentioned above. Protein melting curves were obtained from samples aliquoted in 96-well plates using a RealPlex quantitative PCR from Eppendorf. […] A heating ramp of 1 degree Celsius/min was used from 25 degree Celsius to 74 degree Celsius and one data point was acquired for each degree increment. Appropriate dye controls and protein controls were incorporated. All the experiments were done with minimum two replicates and the mean value of the replicate Y was considered for further analysis.
Protein melting curves were obtained from samples aliquoted in 96-well plates using a RealPlex quantitative PCR instrument from Eppendorf (Eppendorf, N.Y., USA), with Sypro orange dye from Invitrogen as the fluorescent probe. A uniform final concentration of 5× (supplied as a 5000× stock solution) was used in all experiments. […] A heating ramp of 1° C./min from 25° C. to 74° C. was used, and one data point acquired for each degree increment. For standardization, different buffers and pH were checked. Thereafter, 100 mM HEPES pH 7.3 and 150 mM NaCl were used in all unfolding experiments. The volume of each reaction was 20 μl, and appropriate dye and protein controls were included. All experiments were done with a minimum of two replicates, with the mean value considered for further analysis. […] An additional control to rule out drug-dye interaction was carried out with all the constituents kept constant except for the protein of interest. The protein/protein-drug curves were reported after subtracting the respective dye alone/drug-dye curves.
Each melting curve was assigned a quality score (Q), the ratio of the melting-associated increase in fluorescence (ΔFmelt) to the total fluorescence range (ΔFtotal). […] Though an arbitrary Q value cutoff was not applied to judge curve quality, the curves were manually curated with Q values reported.
Subsequent to standardization, the validity of the top 1% of […]^comb's predictions on the test set of eight diverse proteins was examined. To be conservative, we focused only on those protein/ligand pairs showing single sigmoidal thermal transition curves. The fit to Boltzmann's equation (Eq. 1) was employed to estimate the melting temperature from the observed intensity, I.
[formula] Imin and Imax are the minimum and maximum intensities; a denotes the slope of the curve at the transition midpoint temperate, Tm. To estimate thermodynamic parameters, both van't Hoff and Gibbs-Helmholtz analyses were done.
[formula] KL(Tm) is the ligand association constant and [L] is the free ligand concentration at Tm([LTm]˜[L]total, when [L]total>>the total concentration of protein. KD is the inverse of KL(Tm).

[2] = system: amphotericin-resistant Candida albicans (ARCA); assay: Antifungal growth inhibition (MIC), ARCA; assay type: cell-based; settings: for MIC: read-out: ARCA (MIC)
[3] = system: multi-drug resistant E. coli SMS-3-4 (ATCC BAA-1743) (MDREC); assay: Antimicrobial growth inhibition (MIC), MDREC; settings: Escherichia coli
E. coli DH5α = assay: Antimicrobial growth inhibition (MIC), E. coli DH5α; settings: Escherichia coli
[4] = system: several cancer cell lines including melanoma, prostrate, colon, and breast; settings: cited from earlier work
[5] = system: methicillin-resistant S. aureus (ATCC 33591) (MRSA); assay: Antimicrobial growth inhibition (MIC), MRSA
[6] = system: colon carcinoma cells HCT-116; assay: Cytotoxicity assay on HCT-116; assay type: cell-based; settings: for IC50: Homo sapiens, HCT-116
[7] = system: vancomycin-resistant E. faecium (ATCC700221) (VREF); assay: Antimicrobial growth inhibition (MIC), VREF
[8] = Table 5, computed from the thermal shifts obtained, read-out: KD (Approx)
[9] = Candida albicans, Table 5, unit from Table 1, ND: non determinable/no significant inhibition
[10] = Table 6, ND: No significant inhibition, read-out: HCT-116 (IC-50), inhibitory concentration for 50% growth inhibition
[11] = Enterococcus faecium, ATCC700221, read-out: VREF (MIC), minimum inhibitory concentration required for 90% clearance
[12] = Table 5, unit from Table 6, ND: non determinable/no significant inhibition
[13] = Table 6, ND: No significant inhibition

SMILES: C1=Cc2ccccc2Nc2ccccc21 [NSC123458]
Kd [1, 8]: 5.64 µM
ΔTm ([1]; Table 5): 14.17 °C

MIC90 ([2]; Candida albicans, read-out: MIC (MIC-90, minimum inhibitory concentration for 90% growth inhibition), Table 1, ARCA): 125 µg/mL (≈ 411 µM)
MIC [2, 9]: 125 µg/mL (≈ 411 µM)
MIC ([3]; ATCCBAA1743, read-out: MDREC (MIC), minimum inhibitory concentration required for 90% clearance): 125 µg/mL (≈ 411 µM)
MIC90 ([3]; ATCCBAA1743, read-out: MIC (MIC-90, minimum inhibitory concentration for 90% growth inhibition)): 125 µg/mL (≈ 411 µM)
MIC (E. coli DH5α; read-out: DH5α (MIC)): 7.81 µg/mL (≈ 25.7 µM)
MIC (E. coli DH5α; read-out: DH5α (MIC), minimum inhibitory concentration required for 90% clearance): 7.81 µg/mL (≈ 25.7 µM)
MIC90 (E. coli DH5α; read-out: MIC (MIC-90, minimum inhibitory concentration for 90% growth inhibition)): 7.81 µg/mL (≈ 25.7 µM)
MIC90 ([5]; Staphylococcus aureus, ATCC33591|MRSA, read-out: MIC (MIC-90, minimum inhibitory concentration for 90% growth inhibition)): 31.2 µg/mL (≈ 103 µM)
MIC ([5]; Staphylococcus aureus, ATCC33591|MRSA, read-out: MRSA (MIC), minimum inhibitory concentration required for 90% clearance): 31.2 µg/mL (≈ 103 µM)
MIC ([5]; Staphylococcus aureus, read-out: MRSA (MIC)): 31.2 µg/mL (≈ 103 µM)
MIC90 ([7]; Enterococcus faecium, ATCC700221, read-out: MIC (MIC-90, minimum inhibitory concentration for 90% growth inhibition)): 31.2 µg/mL (≈ 103 µM)
MIC ([7]; Enterococcus faecium, ATCC700221, read-out: VREF (MIC)): 31.2 µg/mL (≈ 103 µM)
MIC [7, 11]: 31.2 µg/mL (≈ 103 µM)
SMILES: Nc1ccc(Cn2ccc3c4c(N)nc(N)nc4ccc32)cc1 [NSC309401, 7-[(4-aminophenyl)methyl]-7H-pyrrolo[3,2-f]quinazoline-1,3-diamine]
activity against cancer cell lines (potency not revealed) [4]: has activity
IC50 ([6]; Table 5, unit from Table 6, ND: non determinable/no significant inhibition, read-out: HCT-116 (IC-50)): 0.13 µg/mL (≈ 0.427 µM)
IC50 [6, 10]: 0.13 µg/mL (≈ 0.427 µM)

SMILES: CC(C)=C(c1ccc(Cl)cc1)c1c(N)ncnc1N [NSC157522]
Kd [1, 8]: 19.5 µM
ΔTm ([1]; Table 5): 10.13 °C

SMILES: O=C(Nc1ccc(Oc2ccc(NC(=O)Nc3ccc([N+](=O)[O-])cc3)cc2)cc1)Nc1ccc([N+](=O)[O-])cc1 [NSC80735]
Kd [1, 8]: 1.71 µM
ΔTm ([1]; Table 5): 18.16 °C
Kd ([1]; text b322, read-out: KD / affinity): 1.7 µM
HCT-116 (IC-50) [6, 12]: 10.9 µg/mL

SMILES: CN(Cc1cnc2nc(N)nc(N)c2n1)c1ccc(C(=O)N[C@@H](CCC(=O)O)C(=O)O)cc1 [NSC740, methotrexate]
MIC ([2]; Candida albicans): 500 µg/mL (≈ 1100 µM)
IC50 [6, 10]: 0.048 µg/mL (≈ 0.106 µM)
MIC [7, 11]: 500 µg/mL (≈ 1100 µM)

SMILES: C#CCC(Cc1cnc2nc(N)nc(N)c2n1)c1ccc(C(=O)N[C@@H](CCC(=O)O)C(=O)O)cc1 (stereo partly drawn) [NSC754230, pralatrexate, reference compound]
Kd [1, 8]: 0.499 µM
IC50 [6, 10]: < 0.031 µg/mL

SMILES: CCOc1ccc(NC(=O)c2cc3ccccc3cc2O)cc1 [NSC50690]
Kd [1, 8]: 463 µM
ΔTm ([1]; Table 5): 0.23 °C

SMILES: O=C(Nc1ccc(C(=O)O)c(O)c1)c1ccccc1 [NSC159686]
Kd [1, 8]: 12.7 µM
ΔTm ([1]; Table 5): 11.52 °C

SMILES: N/C(CC(=O)Nc1cc(C(F)(F)F)ccc1Cl)=N\O [NSC379536]
Kd [1, 8]: 28.9 µM
ΔTm ([1]; Table 5): 8.86 °C

SMILES: COc1cc(NCc2ccccc2O)c2ncccc2c1 [NSC130801]
Kd [1, 8]: 75 µM
ΔTm ([1]; Table 5): 5.84 °C

ARCA (MIC) ([2]; Table 5, unit from Table 1, ND: non determinable/no significant inhibition): 250 µg/mL
MRSA (MIC) [5, 12]: 31.25 µg/mL
MRSA (MIC), minimum inhibitory concentration required for 90% clearance [5, 13]: 31.25 µg/mL
VREF (MIC) [7, 12]: 31.25 µg/mL
VREF (MIC), minimum inhibitory concentration required for 90% clearance [7, 13]: 31.25 µg/mL
SMILES: CCc1nc(N)nc(N)c1-c1ccc(N(C)Cc2ccccc2)c([N+](=O)[O-])c1 [NSC382035, methylbezoprim, reference compound]
HCT-116 (IC-50) [6, 12]: 0.182 µg/mL
HCT-116 (IC-50), inhibitory concentration for 50% growth inhibition [6, 13]: 0.182 µg/mL

SMILES: Nc1ccc(-c2nc3nc(N)nc(N)c3nc2-c2ccc(N)cc2)cc1 [NSC61642, 6,7-bis(4-aminophenyl) pteridine-2,4-diamine, reference compound]
MIC [2, 9]: 250 µg/mL (≈ 726 µM)
Kd [1, 8]: 2.03 µM

SMILES: Nc1ccc(NC(=O)c2ccc(C(=O)Nc3ccc(N)cc3)cc2)cc1 [NSC55152]
Kd [1, 8]: 73.8 µM
ΔTm ([1]; Table 5): 5.89 °C
